Results on 33 molecules are retold here after patent US8377974B2 (Millennium Pharmaceuticals, Inc., priority 2004, dated 2013).

Each structure is given as a SMILES string.

The experiment deals with T1, human plasma protein factor Xa (Homo sapiens, UniProt P00742).
T1 construct: measure proteolytic activity of the enzyme (factor Xa); purchased Haematologic Technologies (Essex Junction, Vt.); host or cells: human plasma
T1 sequence (P00742 235-488 limits assumed): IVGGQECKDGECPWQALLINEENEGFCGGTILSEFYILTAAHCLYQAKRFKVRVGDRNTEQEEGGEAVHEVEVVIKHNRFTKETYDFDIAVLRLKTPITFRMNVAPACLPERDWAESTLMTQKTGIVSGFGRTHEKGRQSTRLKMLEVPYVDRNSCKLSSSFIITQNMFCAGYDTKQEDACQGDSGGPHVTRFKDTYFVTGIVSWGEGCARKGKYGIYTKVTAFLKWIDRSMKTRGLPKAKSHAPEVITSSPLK
T1 sequence (P00742 41-179 partner limits assumed): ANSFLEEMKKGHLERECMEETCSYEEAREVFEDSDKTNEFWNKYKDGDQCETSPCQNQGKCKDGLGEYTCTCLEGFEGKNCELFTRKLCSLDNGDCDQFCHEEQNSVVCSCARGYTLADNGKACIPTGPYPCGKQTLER
In words: Factor Xa IC50 determination: cleavage of paranitroanilide substrate S-2765 in 96-well plates. Format: biochemical. The note with it: fXa 1 nM, S-2765 100 μM, Tris buffered saline pH 7.4, room temperature. The procedure, abridged:
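Human plasma factor Xa (1 nM) preincubated 5 min at room temperature with inhibitor (0.01 nM–10 μM final) in Tris-buffered saline pH 7.4 with 5 mM CaCl2, 0.1% BSA, 5% DMSO. S-2765 at 100 μM final; hydrolysis at 405 nm over 2 min. IC50 from 4-parameter fit of initial velocities.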
Regarding `O=C(NCc1cc(-c2cccc(-c3ccccc3CN3CCCC3)c2)no1)c1ccc(Cl)s1` [Example 269, 5-Chloro-thiophene-2-carboxylic acid [3-(2′-pyrrolidin-1-ylmethyl-biphenyl-3-yl)-isoxazol-5-ylmethyl]-amide], the IC50 is at most 100 nM.
Turning to `CN(C)Cc1cccc(-c2cccc(-c3cc(CNC(=O)c4ccc(Cl)s4)on3)c2)c1` [Example 270, 5-Chloro-thiophene-2-carboxylic acid [3-(3′-dimethylaminomethyl-biphenyl-3-yl)-isoxazol-5-ylmethyl]-amide], the IC50 was at least 500 nM.
Next, `O=C(NCc1cc(-c2cccc(-c3cccc(CN4CCCC4)c3)c2)no1)c1ccc(Cl)s1` [Example 271, 5-Chloro-thiophene-2-carboxylic acid [3-(3′-pyrrolidin-1-ylmethyl-biphenyl-3-yl)-isoxazol-5-ylmethyl]-amide]: at least 500 nM.
The molecule `CN(C)Cc1ccc(-c2cccc(-c3cc(CNC(=O)c4ccc(Cl)s4)on3)c2)cc1` [Example 272, 5-Chloro-thiophene-2-carboxylic acid [3-(4′-dimethylaminomethyl-biphenyl-3-yl)-isoxazol-5-ylmethyl]-amide] returned an IC50 of at least 500 nM.
The molecule `O=C(NCc1cc(-c2cccc(-c3ccc(CN4CCCC4)cc3)c2)no1)c1ccc(Cl)s1` [Example 273, 5-Chloro-thiophene-2-carboxylic acid [3-(4′-pyrrolidin-1-ylmethyl-biphenyl-3-yl)-isoxazol-5-ylmethyl]-amide] registered an IC50 of at least 500 nM.
On to `O=C(NCC1CC(c2cccc(-c3cccnc3)c2)=NO1)c1ccc(Cl)s1` (stereo not drawn) [Example 274, 5-Chloro-thiophene-2-carboxylic acid [3-(3-pyridin-3-yl-phenyl)-4,5-dihydro-isoxazol-5-ylmethyl]-amide], for which the IC50 was at least 500 nM.
`O=C(NCC1CC(c2cccc(-c3ccncc3)c2)=NO1)c1ccc(Cl)s1` (stereo not drawn) [Example 275, 5-Chloro-thiophene-2-carboxylic acid [3-(3-pyridin-4-yl-phenyl)-4,5-dihydro-isoxazol-5-ylmethyl]-amide]: the IC50 is at least 500 nM.
`O=C(NCc1cc(-c2cccc(-c3cccnc3)c2)no1)c1ccc(Cl)s1` [Example 276, 5-Chloro-thiophene-2-carboxylic acid [3-(3-pyridin-3-yl-phenyl)-isoxazol-5-ylmethyl]-amide] gave an IC50 of at least 500 nM.
For `O=C(NCC1CC(c2ccc(-n3ccccc3=O)cc2)=NO1)c1ccc(Cl)s1` (stereo not drawn) [Example 278, 5-Chloro-N-((3-(4-(2-oxopyridin-1(2H)-yl)phenyl)-4,5-dihydroisoxazol-5-yl)methyl)thiophene-2-carboxamide], the concentration for half-maximal inhibition (IC50) was at most 100 nM.
Next, `O=C(NCC1CC(c2ccc(-n3cccc(F)c3=O)cc2)=NO1)c1ccc(Cl)s1` (stereo not drawn) [Example 279, 5-Chloro-N-((3-(4-(3-fluoro-2-oxopyridin-1(2H)-yl)phenyl)-4,5-dihydroisoxazol-5-yl)methyl)thiophene-2-carboxamide]: at most 100 nM; `O=C(NCC1CC(c2ccc(-n3cc(F)ccc3=O)cc2)=NO1)c1ccc(Cl)s1` (stereo not drawn) [Example 280, 5-Chloro-N-((3-(4-(5-fluoro-2-oxopyridin-1(2H)-yl)phenyl)-4,5-dihydroisoxazol-5-yl)methyl)thiophene-2-carboxamide]: at most 100 nM; `Cc1cccn(-c2ccc(C3=NOC(CNC(=O)c4ccc(Cl)s4)C3)cc2)c1=O` (stereo not drawn) [Example 281, 5-Chloro-N-((3-(4-(3-methyl-2-oxopyridin-1(2H)-yl)phenyl)-4,5-dihydroisoxazol-5-yl)methyl)thiophene-2-carboxamide]: at most 100 nM.
For the molecule `COc1cccn(-c2ccc(C3=NOC(CNC(=O)c4ccc(Cl)s4)C3)cc2)c1=O` (stereo not drawn) [Example 282, 5-Chloro-N-((3-(4-(3-methoxy-2-oxopyridin-1(2H)-yl)phenyl)-4,5-dihydroisoxazol-5-yl)methyl)thiophene-2-carboxamide], the IC50 was at most 100 nM.
As for `O=C(NCC1CC(c2ccc(-n3cccc(Cl)c3=O)cc2)=NO1)c1ccc(Cl)s1` (stereo not drawn) [Example 283, 5-Chloro-N-((3-(4-(3-chloro-2-oxopyridin-1(2H)-yl)phenyl)-4,5-dihydroisoxazol-5-yl)methyl)thiophene-2-carboxamide], the half-maximal inhibitory concentration (IC50) is at most 100 nM.
In turn, `Cc1ccn(-c2ccc(C3=NOC(CNC(=O)c4ccc(Cl)s4)C3)cc2)c(=O)c1` (stereo not drawn) [Example 284, 5-Chloro-N-((3-(4-(4-methyl-2-oxopyridin-1(2H)-yl)phenyl)-4,5-dihydroisoxazol-5-yl)methyl)thiophene-2-carboxamide] displayed an IC50 of at most 100 nM.
The molecule `Cc1ccc(=O)n(-c2ccc(C3=NOC(CNC(=O)c4ccc(Cl)s4)C3)cc2)c1` (stereo not drawn) [Example 285, 5-Chloro-N-((3-(4-(5-methyl-2-oxopyridin-1(2H)-yl)phenyl)-4,5-dihydroisoxazol-5-yl)methyl)thiophene-2-carboxamide] yielded a half-inhibitory concentration (IC50) of at most 100 nM.
`COc1ccc(=O)n(-c2ccc(C3=NOC(CNC(=O)c4ccc(Cl)s4)C3)cc2)c1` (stereo not drawn) [Example 286, 5-Chloro-N-((3-(4-(5-methoxy-2-oxopyridin-1(2H)-yl)phenyl)-4,5-dihydroisoxazol-5-yl)methyl)thiophene-2-carboxamide] showed an IC50 of at most 100 nM.
In turn, `O=C(NCc1cc(-c2ccc(I)cc2)no1)c1ccc(Cl)s1` [Example 288, 5-Chloro-N-((3-(4-iodophenyl)isoxazol-5-yl)methyl)thiophene-2-carboxamide] registered an IC50 of at least 500 nM.
Regarding `O=C(NCc1cc(-c2ccc(-n3ccccc3=O)cc2)no1)c1ccc(Cl)s1` [Example 289, 5-Chloro-N-((3-(4-(2-oxopyridin-1(2H)-yl)phenyl)isoxazol-5-yl)methyl)thiophene-2-carboxamide], the 50% inhibitory concentration (IC50) is at most 100 nM.
In the case of `O=C(NCc1cn(-c2ccc(-n3ccccc3=O)cc2)nn1)c1ccc(Cl)s1` [Example 290, 5-Chloro-N-((1-(4-(2-oxopyridin-1(2H)-yl)phenyl)-1H-1,2,3-triazol-4-yl)methyl)thiophene-2-carboxamide] it was at most 100 nM; in that of `O=C(NCc1cn(-c2ccc(-n3cccc(F)c3=O)cc2)nn1)c1ccc(Cl)s1` [Example 291, 5-Chloro-N-((1-(4-(3-fluoro-2-oxopyridin-1(2H)-yl)phenyl)-1H-1,2,3-triazol-4-yl)methyl)thiophene-2-carboxamide], at most 100 nM; in that of `O=C(NCc1cn(-c2ccc(-n3cccc(Cl)c3=O)cc2)nn1)c1ccc(Cl)s1` [Example 292, 5-Chloro-N-((1-(4-(3-chloro-2-oxopyridin-1(2H)-yl)phenyl)-1H-1,2,3-triazol-4-yl)methyl)thiophene-2-carboxamide], at most 100 nM.
Next, `Cc1cccn(-c2ccc(-n3cc(CNC(=O)c4ccc(Cl)s4)nn3)cc2)c1=O` [Example 293, 5-Chloro-N-((1-(4-(3-methyl-2-oxopyridin-1(2H)-yl)phenyl)-1H-1,2,3-triazol-4-yl)methyl)thiophene-2-carboxamide]: at most 100 nM.
Consider `COc1cccn(-c2ccc(-n3cc(CNC(=O)c4ccc(Cl)s4)nn3)cc2)c1=O` [Example 294, 5-Chloro-N-((1-(4-(3-methoxy-2-oxopyridin-1(2H)-yl)phenyl)-1H-1,2,3-triazol-4-yl)methyl)thiophene-2-carboxamide], for which the IC50 is at most 100 nM.
`Cc1ccn(-c2ccc(-n3cc(CNC(=O)c4ccc(Cl)s4)nn3)cc2)c(=O)c1` [Example 295, 5-Chloro-N-((1-(4-(4-methyl-2-oxopyridin-1(2H)-yl)phenyl)-1H-1,2,3-triazol-4-yl)methyl)thiophene-2-carboxamide] came in with an IC50 of at most 100 nM.
As for `Cc1ccc(=O)n(-c2ccc(-n3cc(CNC(=O)c4ccc(Cl)s4)nn3)cc2)c1` [Example 296, 5-Chloro-N-((1-(4-(5-methyl-2-oxopyridin-1(2H)-yl)phenyl)-1H-1,2,3-triazol-4-yl)methyl)thiophene-2-carboxamide], the half-maximal inhibitory concentration (IC50) is at most 100 nM.
The molecule `COc1ccc(=O)n(-c2ccc(-n3cc(CNC(=O)c4ccc(Cl)s4)nn3)cc2)c1` [Example 297, 5-Chloro-N-((1-(4-(5-methoxy-2-oxopyridin-1(2H)-yl)phenyl)-1H-1,2,3-triazol-4-yl)methyl)thiophene-2-carboxamide] showed an IC50 of at most 100 nM.
Next, `O=C(NCc1cn(-c2ccc(-n3cc(F)ccc3=O)cc2)nn1)c1ccc(Cl)s1` [Example 298, 5-Chloro-N-((1-(4-(5-fluoro-2-oxopyridin-1(2H)-yl)phenyl)-1H-1,2,3-triazol-4-yl)methyl)thiophene-2-carboxamide]: at most 100 nM.
Consider `O=C(NCc1cn(-c2ccc(-n3cc(Cl)ccc3=O)cc2)nn1)c1ccc(Cl)s1` [Example 299, 5-Chloro-N-((1-(4-(5-chloro-2-oxopyridin-1(2H)-yl)phenyl)-1H-1,2,3-triazol-4-yl)methyl)thiophene-2-carboxamide], for which the 50% inhibitory concentration (IC50) is at most 100 nM.
For `O=C(NCc1cn(-c2ccc(N3CCCCC3=O)cc2)nn1)c1ccc(Cl)s1` [Example 300, 5-Chloro-N-((1-(4-(2-oxopiperidin-1-yl)phenyl)-1H-1,2,3-triazol-4-yl)methyl)thiophene-2-carboxamide], the IC50 is at most 100 nM.
`O=C(NCc1cn(-c2ccc(N3CCOCC3=O)cc2)nn1)c1ccc(Cl)s1` [Example 301, 5-Chloro-N-((1-(4-(3-oxomorpholino)phenyl)-1H-1,2,3-triazol-4-yl)methyl)thiophene-2-carboxamide] came in with an IC50 of at most 100 nM.
`O=C(NCc1cn(-c2ccc(N3CCSCC3=O)cc2)nn1)c1ccc(Cl)s1` [Example 302, 5-Chloro-N-((1-(4-(3-oxothiomorpholino)phenyl)-1H-1,2,3-triazol-4-yl)methyl)thiophene-2-carboxamide]: the half-maximal inhibitory concentration (IC50) was at most 100 nM.
`O=C(NCc1cn(-c2ccc(N3CCOCCC3=O)cc2)nn1)c1ccc(Cl)s1` [Example 303, 5-Chloro-N-((1-(4-(5-oxo-1,4-oxazepan-4-yl)phenyl)-1H-1,2,3-triazol-4-yl)methyl)thiophene-2-carboxamide]: the IC50 was at most 100 nM.

For orientation: IC50 means the midpoint of a concentration-inhibition curve.
